Our source for the IC50 values is patent EP1229025A1, “NOVEL QUINAZOLINE DERIVATIVES” (Japan Energy Corporation, priority 1999, dated 2001).

The structures appear in SMILES notation.

The test system of this assay is TNF-α production. The assay is described as follows: TNF-α production inhibiting test using human PBMC (LPS stimulus, ELISA). It counts as cell-based. As to conditions: LPS 10 ng/ml, 16 hours, ELISA of culture supernatants. Here is the method:
Example 145: TNF-α production inhibiting test using human PBMC (peripheral blood mononuclear cells)
Preparation of human PBMC
The blood of a healthy person was taken with a vacuum blood-collecting tube (Nipro neotube) and diluted up to two-fold with physiological saline (Otsuka Pharmaceuticals). To the diluted blood was added 6% dextran T-500 (prepared after dissolution in physiological saline (Otsuka Pharmaceuticals) and sterilization with an autoclave) so as to make a final concentration of 1%. The solution was subjected to tumble mixing and allowed to stand at room temperature for 30 minutes to precipitate the erythrocytes. The supernatant was collected and subjected to centrifugation at 20 °C and at 1,500 rpm for 10 minutes. The cells were suspended in 3 ml of RPMI1640 culture medium (Asahi Technogllas) and overlaid on the solution surface of 3 ml Lymphoprep (NYCOMED). Further, with 1.5 ml of RPMI1640 culture medium being added to the tube which had contained the cell suspension liquid, the cells attached to the tube, which had remained uncollected, were suspended for collection and overlaid on the Lymphoprep previously mentioned. This operation was repeated again. After centrifugation at 20 °C and at 2,000 rpm for 30 minutes, there was collected a fraction of peripheral blood mononuclear cells present in the boundary surface between the Lymphoprep and the RPMI1640 culture medium. The cells were washed twice with 10 ml RPMI1640 culture medium to remove the Lymphoprep and then suspended in a RPMI1640 culture medium added with 10% bovine fetal serum (IRVINE SCIENTIFIC), 100 U/ml penicillin and 100 µg/ml streptomycin (hereinafter referred to as cRPMI1640 culture medium). The number of the cells was measured by Tuerk dying, and the cells, after adjustment to 3 × 10^6 cells/ml, were planted in 100 µl/well on a 96-well plate (FALCON). The cells were cultured at 37 °C under 5%CO2 atmosphere for about 5 hours.
Induction of TNF-α production by LPS stimulus
LPS (E.coli 0111:B4, DIFCO), which had been prepared to 10 mg/ml with water and kept at -20, was diluted to 100 µg/ml with cRPMI1640 culture medium and subjected to sterile filtration. The 100 µg/ml LPS was diluted with cRPMI1640 culture medium to prepare 20 ng/ml LPS. A compound to be tested which was dissolved in DMSO at 1,000-fold concentration was diluted to 500-fold with cRPMI1640 culture medium containing 20 ng/ml LPS and added in 100 µl/well to the cells which had been planted on the previously mentioned 96-well plate (final concentration of LPS: 10 ng/ml). For use as the control group, the solutions were made by diluting DMSO of the same volume as in the test compounds with cRPMI1640 culture medium containing 20 ng/ml LPS, and they were added to the cells. These cells were cultured at 37 °C under 5%CO2 atmosphere for 16 hours.
Determination of TNF-α activity (ELISA method)
To the 96-well plate the mouse anti-human TNF-α antibody (prepared to 2 µg/ml with Coating buffer*^1) was added so as to make 100 µl/well and allowed to stand at 4 °C overnight. After 5-times washing with Wash buffer*^2 (300µl/well), the Blocking buffer*^3 was added to the solutions, which were allowed to stand 37 °C for 2 hours. The culture supernatants were diluted up to 5-fold in the plate (supernatant 20 µl being added to 80 µl of cRPMI1640 culture medium). Simultaneously, for using for a calibration curve, a series of dilution of recombinant human TNF-α was prepared arid allowed to stand 37 °C for 1 hour. After 5-times washing with Wash buffer (300 µl /well), biotinylated rabbit anti-human TNF-α antibody (prepared to 0.25 µg/ml with Antibody diluent*^4) was added so as to make 100 µl /well and allowed to stand at 37 °C for 1 hour. After 5-times washing with Wash buffer (300 µl /well), Streptavidin-Horseradish peroxidase(prepared to 1:4000 with Antibody diluent) was added to make 100 µl /well and allowed to stand at 37 °C for 15 minutes. […]

In the case of `O=[N+]([O-])c1cc2c(NCCc3ccc(Cl)cc3)ncnc2cc1N1CCNCC1` [Example 1, 4-[2-(4-chlorophenyl)ethylamino]-6-nitro-7-(piperazin-1-yl)quinazoline], 800 nM corresponded to half-maximal inhibition (IC50). The figure for `O=[N+]([O-])c1cc2c(NCCc3ccc(Cl)cc3)ncnc2cc1N1CCCNCC1` [Example 2, 4-[2-(4-chlorophenyl)ethylamino]-7-(homopiperazin-1-yl)-6-nitroquinazoline] is 2100 nM; for `CN1CCN(c2cc3ncnc(NCCc4ccc(Cl)cc4)c3cc2[N+](=O)[O-])CC1` [Example 3, 4-[2-(4-chlorophenyl)ethylamino]-7-(4-methylpiperazin-1-yl)-6-nitroquinazoline] it is 1400 nM; for `O=[N+]([O-])c1cc2c(NCCc3ccc(Cl)cc3)ncnc2cc1N1CCN(CCO)CC1` [Example 5, 4-[2-(4-chlorophenyl)ethylamino]-7-[4-(2-hydroxyethyl)piperazin-1-yl)-6-nitroquinazoline] it is 1900 nM.

The compound `O=CN1CCN(c2cc3ncnc(NCCc4ccc(Cl)cc4)c3cc2[N+](=O)[O-])CC1` [Example 6, 4-[2-(4-chlorophenyl)ethylamino]-7-(4-formylpiperazin-1-yl)-6-nitroquinazoline] yielded an IC50 of 2500 nM.

Consider `NC1CCN(c2cc3ncnc(NCCc4ccc(Cl)cc4)c3cc2[N+](=O)[O-])CC1` [Example 8, 7-(4-aminopiperidin-1-yl)-4-[2-(4-chlorophenyl)ethylamino]-6-nitroquinazoline], for which the IC50 was determined as 1400 nM. In the case of `NCC1CCN(c2cc3ncnc(NCCc4ccc(Cl)cc4)c3cc2[N+](=O)[O-])CC1` [Example 9, 7-(4-aminomethylpiperidin-1-yl)-4-[2-(4-chlorophenyl)ethylamino]-6-nitroquinazoline], half-maximal inhibition (IC50) was put at 1300 nM. The figure for `O=[N+]([O-])c1cc2c(NCCc3ccccc3)ncnc2cc1N1CCNCC1` [Example 10, 6-nitro-4-[2-(phenyl)ethylamino]-7-(piperazin-1-yl)quinazoline] is 400 nM. Compound `O=[N+]([O-])c1cc2c(NCc3ccccc3)ncnc2cc1N1CCNCC1` [Example 18, 4-(benzylamino)-6-nitro-7-(piperazin-1-yl)quinazoline] yielded an IC50 of 400 nM. `O=[N+]([O-])c1cc2c(NCc3ccc(F)cc3)ncnc2cc1N1CCNCC1` [Example 25, 4-(4-fluorobenzylamino)-6-nitro-7-(piperazin-1-yl)quinazoline] came in with an IC50 of 400 nM.

Consider `O=[N+]([O-])c1cc2c(NCCc3ccc(F)cc3)ncnc2cc1N1CCNCC1` [Example 37, 4-[2-(4-fluorophenyl)ethylamino]-6-nitro-7-(piperazin-1-yl)quinazoline], for which it took 600 nM to reach half-maximal inhibition (IC50). As for `O=[N+]([O-])c1cc2c(NCCc3cccs3)ncnc2cc1N1CCNCC1` [Example 42, 6-nitro-7-(piperazin-1-yl)-4-[2-(2-thienyl)ethylamino]quinazoline], the figure is 500 nM. The figure for `O=[N+]([O-])c1cc2c(NCCCc3ccccc3)ncnc2cc1N1CCNCC1` [Example 54, 6-nitro-4-[3-(phenyl)propylamino]-7-(piperazin-1-yl)quinazoline] is 400 nM.

For the compound `O=[N+]([O-])c1cc2c(NCCc3ccccn3)ncnc2cc1N1CCNCC1` [Example 56, 6-nitro-7-(piperazin-1-yl)-4-[2-(2-pyridyl)ethylamino]quinazoline], 1100 nM corresponded to half-maximal inhibition (IC50). Compound `O=[N+]([O-])c1cc2c(NCCc3cccnc3)ncnc2cc1N1CCNCC1` [Example 57, 6-nitro-7-(piperazin-1-yl)-4-[2-(3-pyridyl)ethylamino]quinazoline] came in with an IC50 of 2300 nM. Consider `O=[N+]([O-])c1cc2c(NCCc3ccncc3)ncnc2cc1N1CCNCC1` [Example 58, 6-nitro-7-(piperazin-1-yl)-4-[2-(4-pyridyl)ethylamino]quinazoline], for which 3500 nM corresponded to half-maximal inhibition (IC50). As for `O=[N+]([O-])c1cc2c(NCc3cccc4ccccc34)ncnc2cc1N1CCNCC1` [Example 59, 4-[(1-naphthyl)methylamino]-6-nitro-7-(piperazin-1-yl)quinazoline], the figure is 500 nM.
